In patent US12648943B2, “Treatment of adrenocortical carcinoma with selective glucocorticoid receptor modulators (SGRMs) and antibody checkpoint inhibitors” (Corcept Therapeutics Incorporated, priority 2020, dated 2026):
Entries after “also recorded” stand apart in the source; their conditions may differ.

Columns and labels:
K562 tumor cells = experiment: K562 tumor cell killing by human NK cells in vitro; assay type: cell-based; conditions: for Tumor cell killing by NK cells at 5:1 ratio: 5:1 effector:tumor cell ratio, Mann-Whitney p=0.004; for Tumor cell killing by NK cells: various NK:tumor cell ratios, cortisol alone or cortisol plus relacorilant
Method: Activation, proliferation, and cytokine secretion are all indicative of a functional change in NK cells mediated by cortisol and relacorilant. To determine if this functional change also affected target cell killing, NK cells were incubated with K562 tumor cells. At various NK:tumor cell ratios, cortisol suppressed tumor cell killing and relacorilant restored it (FIG. 13A). […] Thus, glucocorticoids suppress tumor cell killing by human NK cells in vitro.

human NK cells [1] = experiment: Activation of isolated human NK cells stimulated with IL-2 (CD25+CD69+ cells); assay type: cell-based; conditions: NK cells from healthy donors, IL-2 stimulated; cortisol alone or cortisol plus relacorilant; Mann-Whitney p=0.0039
Method: (§1) Given the prominent suppression of NK related genes in GC+ cases, the direct effects of GR modulation of human NK cells were assessed. NK cells were isolated from healthy donors and stimulated with IL-2. Activation (abundance of CD25+CD69+ cells) was increased by stimulation, suppressed by cortisol, and restored by relacorilant (Mann-Whitney p=0.0039) (FIG. 11A). […] (FIG. 12D).

human NK cells [2] = experiment: Gene expression in isolated human NK cells stimulated with IL-2; assay type: cell-based; conditions: for Expression of IL2RA (IL2 receptor) / Expression of LAG3 / Transcription of IFNG (IFNγ): IL-2 stimulated human NK cells; for Expression of IL2RA (IL2 receptor) / Expression of LAG3 / Transcription of IFNG (IFNγ) / Expression of 4-1BB (CD137 tnfrsf9): cortisol alone or cortisol plus relacorilant; for Expression of 4-1BB (CD137 tnfrsf9): stimulated human NK cells
Method: as §1

human NK cells [3] = experiment: Proliferation of isolated human NK cells stimulated with IL-2; assay type: cell-based; conditions: NK cells from healthy donors, IL-2 stimulated; cortisol alone or cortisol plus relacorilant; Mann-Whitney p=0.0099
Method: as §1

human NK cells [4] = experiment: Cytokine secretion by isolated human NK cells stimulated with IL-2; assay type: cell-based; conditions: for Cytokine secretion (both transcript and secreted protein): cortisol alone or cortisol plus relacorilant
Method: as §1

[5] = system: tyrosine aminotransferase (TAT) in HepG2 cells; conditions: cited from earlier work
[6] = IL-2 stimulated human NK cells, relacorilant relative to cortisol alone

C[C@]12CCC(=O)C=C1CC[C@@H]1[C@@H]2[C@@H](O)C[C@@]2(C)[C@H]1CC[C@]2(O)C(=O)CO [cortisol, reference compound]
Tumor cell killing by NK cells at 5:1 ratio (K562 tumor cells): significant decrease | Tumor cell killing by NK cells (K562 tumor cells): suppressed | NK cell activation (abundance of CD25+CD69+ cells) (human NK cells [1]): suppressed | Expression of IL2RA (IL2 receptor) (human NK cells [2]): suppressed | Expression of LAG3 (human NK cells [2]): suppressed | Transcription of IFNG (IFNγ) (human NK cells [2]): suppressed | Expression of chemokine ligand 3-like 1 (ccl3l1) (human NK cells [2]; stimulated NK cells): suppressed | Expression of 4-1BB (CD137 tnfrsf9) (human NK cells [2]): suppressed | Proliferation of NK cells (human NK cells [3]): suppressed | Cytokine secretion (both transcript and secreted protein) (human NK cells [4]; IL-2 stimulated human NK cells): suppressed | interferon γ (IFNγ) secretion (human NK cells [4]; [6]): suppressed | Secretion of other effector cytokines (human NK cells [4]; human NK cells): suppressed

CC#C[C@]1(O)CC[C@H]2[C@@H]3CCC4=CC(=O)CCC4=C3[C@@H](c3ccc(N(C)C)cc3)C[C@@]21C [mifepristone]
Activity of tyrosine aminotransferase (TAT) [5]: decreases

Cn1cc(S(=O)(=O)N2CCC3=Cc4c(cnn4-c4ccc(F)cc4)C[C@]3(C(=O)c3cc(C(F)(F)F)ccn3)C2)cn1 [relacorilant, (R)-(1-(4-fluorophenyl)-6-((1-methyl-1H-pyrazol-4-yl)sulfonyl)-4,4a,5,6,7,8-hexahydro-1H-pyrazolo[3,4-g]isoquinolin-4a-yl)(4-(trifluoromethyl)pyridin-2-yl)methanone]
Tumor cell killing by NK cells at 5:1 ratio (K562 tumor cells): significant improvement; also recorded: counteracted | Tumor cell killing by NK cells (K562 tumor cells): restore; also recorded: counteracted | NK cell activation (abundance of CD25+CD69+ cells) (human NK cells [1]): restore; also recorded: significantly improved | Expression of IL2RA (IL2 receptor) (human NK cells [2]): restored; also recorded: improved | Expression of LAG3 (human NK cells [2]): restored; also recorded: promoted; also recorded: improved | Transcription of IFNG (IFNγ) (human NK cells [2]): improved | Expression of 4-1BB (CD137 tnfrsf9) (human NK cells [2]): promoted | Proliferation of NK cells (human NK cells [3]): restore; also recorded: significantly improved | Cytokine secretion (both transcript and secreted protein) (human NK cells [4]; IL-2 stimulated human NK cells): restored | Granzyme A secretion (human NK cells [4]; [6]): improved | interferon γ (IFNγ) secretion (human NK cells [4]; [6]): improved | tumor necrosis factor (TNFα) secretion (human NK cells [4]; [6]): improved
